Patent publication US20040224958A1, “Pyridopyrimidinone derivatives for treatment of neurodegenerative disease” (priority 2000, published 2004)
Where two headings read alike, the source gives them in different places.

Columns and labels:
cdc2/cyclinB = cdc2/cyclinB (Homo sapiens, UniProt P06493); experiment: Cyclin-Dependent Kinase Assay cdc2/cyclinB
Protocol: Cyclin-Dependent Kinase Assays (cdk2/cyclinE, cdk2/cyclinA, cdc2/cyclinB)
All components except the ATP were added to the wells, and the plate was placed on a plate mixer for 2 minutes. The reaction was begun by addition of [^32P]ATP, and the plate was incubated at 25° C. for 15 minutes. The reaction was terminated by addition of 0.1 mL of 20% TCA. The plate was kept at 4° C. for at least 1 hour to allow the substrate to precipitate. The wells were then washed five times with 0.2 mL of 10% TCA and ^32p incorporation determined with a beta plate counter (Wallac Inc., Gaithersburg, Md.).

cdk2/cyclinE = cdk2/cyclinE (Homo sapiens, UniProt P24941); experiment: Cyclin-Dependent Kinase Assay cdk2/cyclinE; settings: cdk2/E IC50
Cdk5/p25 = Cdk5/p25 (Homo sapiens, UniProt Q00535); experiment: Cyclin-Dependent Kinase 5 High Throughput Screening (cdk5-HTS) Assay; assay type: biochemical; settings: high throughput screen
Protocol: Cyclin-Dependent Kinase 5 High Throughput Screening (cdk5-HTS) Assay
Enzyme assays for IC50 determinations were performed in 96-Pierce Reacti-Bind™ White Opaque Glutatione Coated Plates (Cat. No. 15240B).
The total volume was 0.100 mL containing a final concentration of 50 mM TRIS (tris[hydroxymethyl]aminomethane) at pH 7.4, 50 mM NaCl, 10 mM MgCl2, 5 mM dithiothreitol, 20 μM ATP containing 16 μCi/mL of Redivue[y33P]ATP (Amersham Pharmacia Biotech Cat. No. AH9968), 1.0 μg/mL Cdk5/p25, 20 μg/mL GST-RbCOOH, and appropriate dilutions of a compound of the present invention. The reaction was started by adding[^33P]ATP, and the plate was shaken for 30 seconds, then incubated at room temperature for 30 minutes. The reaction was terminated by addition of 0.05 mL of 120 mM EDTA. The plate was kept at room temperature for 45 minutes to allow substrate to bind to the walls of the plate. The wells were then washed three times with 0.2 mL of 1×PBS. Once thoroughly dry, 0.140 mL of MicroScint™2O (Packard Bioscience Cat. No. 87-9081) cocktail was added to all wells. The incorporation of ^33P was determined with a beta plate counter (Packard Topcount).

cdk2/cyclinA = cdk2/cyclinA (Homo sapiens, UniProt P24941); experiment: Cyclin-Dependent Kinase Assay cdk2/cyclinA; settings: cdk2/A IC50
cdk4/D = cdk4/D (Homo sapiens, UniProt P11802); experiment: Cyclin-Dependent Kinase 4 (cdk4) Assay; assay type: biochemical
Protocol: A typical assay, for instance, measures inhibitory activity against the cyclin D dependent kinase 4 enzyme (cdk4/D). […] The cdk4 assay was carried out as follows.
Cyclin-Dependent Kinase 4 (cdk4) Assay
All components except the ATP were added to the wells, and the plate was placed on a plate mixer for 2 minutes. The reaction was started by adding [^32P]ATP and the plate was incubated at 25° C. for 15 minutes. The reaction was terminated by addition of 0.1 mL of 20% trichloroacetic acid (TCA). The plate was kept at 4° C. for at least 1 hour to allow the substrate to precipitate. The wells were then washed five times with 0.2 mL of 10% TCA and ^32P incorporation was determined with a beta plate counter (Wallac Inc., Gaithersburg, Md.).

Sequence of cdk4/D (P11802 whole entry): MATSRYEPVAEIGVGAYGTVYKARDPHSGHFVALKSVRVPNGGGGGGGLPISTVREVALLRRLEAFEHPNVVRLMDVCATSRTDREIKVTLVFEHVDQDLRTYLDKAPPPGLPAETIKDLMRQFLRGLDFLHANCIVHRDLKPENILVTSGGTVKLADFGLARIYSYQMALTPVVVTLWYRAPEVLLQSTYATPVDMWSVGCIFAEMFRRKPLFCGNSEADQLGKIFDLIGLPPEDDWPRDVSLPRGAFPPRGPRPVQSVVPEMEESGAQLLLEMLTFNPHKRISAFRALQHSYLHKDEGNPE
Sequence of cdk4/D (P24385 whole entry, further chain): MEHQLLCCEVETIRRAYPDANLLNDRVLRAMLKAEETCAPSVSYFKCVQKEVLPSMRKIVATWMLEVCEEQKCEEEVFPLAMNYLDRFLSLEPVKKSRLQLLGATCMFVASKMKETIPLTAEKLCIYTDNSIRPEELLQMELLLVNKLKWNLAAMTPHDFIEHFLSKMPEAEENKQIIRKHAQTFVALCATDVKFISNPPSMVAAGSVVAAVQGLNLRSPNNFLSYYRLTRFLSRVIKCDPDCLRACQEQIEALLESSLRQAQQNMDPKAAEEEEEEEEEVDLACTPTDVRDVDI
Sequence of cdc2/cyclinB (P06493 whole entry): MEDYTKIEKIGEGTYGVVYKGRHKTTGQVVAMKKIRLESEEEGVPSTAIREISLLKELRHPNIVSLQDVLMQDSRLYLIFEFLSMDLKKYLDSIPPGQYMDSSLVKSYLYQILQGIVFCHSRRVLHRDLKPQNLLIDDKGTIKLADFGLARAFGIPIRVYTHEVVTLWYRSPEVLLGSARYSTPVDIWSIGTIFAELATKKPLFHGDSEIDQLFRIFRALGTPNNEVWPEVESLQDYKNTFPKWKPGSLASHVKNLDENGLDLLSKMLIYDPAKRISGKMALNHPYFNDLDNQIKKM
Sequence of cdc2/cyclinB (P14635 whole entry, further chain): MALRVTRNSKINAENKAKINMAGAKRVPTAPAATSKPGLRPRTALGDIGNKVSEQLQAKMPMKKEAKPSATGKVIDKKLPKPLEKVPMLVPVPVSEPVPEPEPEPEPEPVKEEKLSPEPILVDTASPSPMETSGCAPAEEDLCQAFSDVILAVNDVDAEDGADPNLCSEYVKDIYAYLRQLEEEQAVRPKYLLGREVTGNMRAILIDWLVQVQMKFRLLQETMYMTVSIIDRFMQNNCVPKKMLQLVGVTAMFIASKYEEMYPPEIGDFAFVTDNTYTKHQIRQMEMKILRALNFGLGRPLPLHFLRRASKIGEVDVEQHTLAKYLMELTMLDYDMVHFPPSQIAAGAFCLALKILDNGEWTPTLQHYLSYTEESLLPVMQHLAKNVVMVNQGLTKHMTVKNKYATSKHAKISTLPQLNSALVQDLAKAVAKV

Row | Molecule | IC50 (Cdk5/p25) [nM] | IC50 (cdk4/D; read-out: cdk4/D IC50) [nM] | other results
1 | O=c1ccc2cnc(Nc3ccc(O)cc3F)nc2n1CC(F)(F)F [Example 596, 2-(2-Fluoro-4-hydroxy-phenylamino)-8-(2,2,2-trifluoro-ethyl)-8H-pyrido[2,3-d]pyrimidin-7-one] | 720 | – | IC50 (cdc2/cyclinB): 1860 nM; IC50 (cdk2/cyclinE): 1300 nM
2 | CCCn1c(=O)ccc2cnc(Nc3ccc4c(c3)NCC4)nc21 [Example 352, 2-(2,3-Dihydro-1H-indol-6-ylamino)-8-propyl-8H-pyrido[2,3-d]pyrimidin-7-one] | 2900 | – | –
3 | CC(=O)Nc1c(F)cc(Nc2ncc3ccc(=O)n(CC4CC4)c3n2)cc1Cl [Example 579, N-[2-Chloro4-(8-cyclopropylmethyl-7-oxo-7,8-dihydro-pyrido[2,3-d]pyrimidin-2-ylamino)-6-fluoro-phenyl]-acetamide] | – | 2800 | IC50 (cdk2/cyclinA): 3900 nM; IC50 (cdk2/cyclinE): 2900 nM
4 | CCC(C)n1c(=O)ccc2cnc(Nc3ccc(Br)c(C)c3)nc21 (stereo not drawn) [Example 479, 2-(4-Bromo-3-methyl-phenylamino)-8-sec-butyl-8H-pyrido[2,3-d]pyrimidin-7-one] | – | 1700 | –
5 | Cc1cc(Nc2ncc3ccc(=O)n(C(C)C)c3n2)ccc1O [Example 435, 2-(4-Hydroxy-3-methyl-phenylamino)-8-isopropyl-8H-pyrido[2,3-d]pyrimidin-7-one] | 1300 | 2600 | –
6 | CCn1c(=O)ccc2cnc(Nc3ccc(C)c(NS(C)(=O)=O)c3)nc21 [Example 307, N-[5-(8-Ethyl-7-oxo-7,8-dihydro-pyrido[2,3-d]pyrimidin-2-ylamino)-2-methyl-phenyl]-methanesulfonamide] | – | 2800 | –
7 | COc1ccc(Nc2ncc3ccc(=O)n(CC(F)(F)F)c3n2)cc1F [Example 602, 2-(3-Fluoro-4-methoxy-phenylamino)-8-(2,2,2-trifluoro-ethyl)-8H-pyrido[2,3-d]pyrimidin-7-one] | 180 | 1300 | IC50 (cdc2/cyclinB): 1800 nM
8 | COc1cc(Nc2ncc3ccc(=O)n(C)c3n2)cc(OC)c1OC [Example 619, 8-Methyl-2-(3,4,5-trimethoxy-phenylamino)-8H-pyrido[2,3-d]pyrimidin-7-one] | 1700 | – | –
9 | CCn1c(=O)ccc2cnc(Nc3ccccc3OCc3ccccc3)nc21 [Example 56, 2-Benzyloxyphenylamino-8-ethyl-8H-pyrido[2,3-d]pyrimidin-7-one] | – | – | IC50 (cdk4/D; Table 1, read-out: cdk4/D IC50): 25000 nM
10 | CCn1c(=O)ccc2cnc(Nc3ccc(NC(C)=O)c(C#N)c3)nc21 [Example 308, N-[2-Cyano-4-(8-ethyl-7-oxo-7,8-dihydro-pyrido[2,3-d]pyrimidin-2-ylamino)-phenyl]-acetamide] | – | 3200 | –
11 | CCNc1nc(Nc2ccccc2)ncc1C=CC(=O)OCC [Example 17, Ethyl 3-(4-Ethylamino-2-phenylamino-pyrimidin-5-yl)acrylate] | – | – | IC50 (cdk4/D; Table 2, Formula II compounds, read-out: cdk4 IC50): 2000 nM
12 | CCCn1c(=O)ccc2cnc(Nc3ccc(C#N)c(C#N)c3)nc21 [Example 339, 4-(7-Oxo-8-propyl-7,8-dihydro-pyrido[2,3-d]pyrimidin-2-ylamino)-phthalonitrile] | 830 | – | IC50 (cdk2/cyclinE): 1800 nM
13 | O=c1ccc2cnc(Nc3ccc4c(c3)CCN4)nc2n1CC1CC1 [Example 581, 8-Cyclopropylmethyl-2-(2,3-dihydro-1H-indol-5-ylamino)-8H-pyrido[2,3-d]pyrimidin-7-one] | – | 420 | IC50 (cdc2/cyclinB): 1600 nM
14 | Cn1c(=O)ccc2cnc(Nc3ccc(C#N)c(C(F)(F)F)c3)nc21 [Example 620, 4-(8-Methyl-7-oxo-7,8-dihydro-pyrido[2,3-d]pyrimidin-2-ylamino)-2-trifluoromethyl-benzonitrile] | 420 | – | –
15 | CCC(CC)n1c(=O)ccc2cnc(Nc3ccc(C(F)(F)F)c([N+](=O)[O-])c3)nc21 [Example 489, 8-(1-Ethyl-propyl)-2-(3-nitro-4-trifluoromethyl-phenylamino)-8H-pyrido[2,3-d]pyrimidin-7-one] | 3500 | – | –
16 | CCCn1c(=O)ccc2cnc(Nc3ccc(OC(F)(F)F)c(Br)c3)nc21 [Example 363, 2-(3-Bromo-4-trifluoromethoi-phenylamino)-8-propyl-8H-pyrido[2,3-d]pyrimidin-7-one] | – | 1900 | –

Row | Molecule | IC50 (Cdk5/p25) [nM] | IC50 (cdk4/D; read-out: cdk4/D IC50) [nM] | other results
17 | CCn1c(=O)ccc2cnc(Nc3cc(C(F)(F)F)ccc3F)nc21 [Example 302, 8-Ethyl-2-(2-fluoro-5-trifluoromethyl-phenylamino)-8H-pyrido[2,3-d]pyrimidin-7-one] | 650 | – | IC50 (cdk2/cyclinE): 2300 nM
18 | O=c1ccc2cnc(Nc3ccc(F)c(F)c3)nc2n1CC(F)(F)F [Example 607, 2-(3,4-Difluoro-phenylamino)-8-(2,2,2-trifluoro-ethyl)-8H-pyrido[2,3-d]pyrimidin-7-one] | 610 | 1400 | –
19 | O=c1ccc2cnc(Nc3cc(F)cc(F)c3)nc2n1CC(F)(F)F [Example 609, 2-(3,5-Difluoro-phenylamino)-8-(2,2,2-trifluoro-ethyl)-8H-pyrido[2,3-d]pyrimidin-7-one] | 3200 | – | –
20 | N#Cc1ccc(Nc2ncc3ccc(=O)n(CC(F)(F)F)c3n2)cc1C#N [Example 603, 4-[7-Oxo-8-(2,2,2-trifluoro-ethyl)-7,8-dihydro-pyrido[2,3-d]pyrimidin-2-ylamino]-phthalonitrile] | 1200 | – | –
21 | CCn1c(=O)ccc2cnc(Nc3ccc(OC(F)(F)F)c(Br)c3)nc21 [Example 306, 2-(3-Bromo-4-trifluoromethoxy-phenylamino)-8-ethyl-8H-pyrido[2,3-d]pyrimidin-7-one] | – | 3600 | –
22 | CCC(C)n1c(=O)ccc2cnc(Nc3ccc(C)c(Br)c3)nc21 (stereo not drawn) [Example 478, 2-(3-Bromo-4-methyl-phenylamino)-8-sec-butyl-8H-pyrido[2,3-d]pyrimidin-7-one] | – | 1300 | –
23 | CC(C)n1c(=O)ccc2cnc(Nc3ccc4c(c3)CCN4)nc21 [Example 437, 2-(2,3-Dihydro-1H-indol-5-ylamino)-8-isopropyl-8H-pyrido[2,3-d]pyrimidin-7-one] | – | 3200 | –
24 | COc1cc(Nc2ncc3ccc(=O)n(CC(F)(F)F)c3n2)cc(C(F)(F)F)c1 [Example 606, 2-(3-Methoxy-5-trifluoromethyl-phenylamino)-8-(2,2,2-trifluoro-ethyl)-8H-pyrido[2,3-d]pyrimidin-7-one] | 1800 | 3800 | IC50 (cdc2/cyclinB): 3500 nM
25 | 8-Butyl-2-(2-fluoro-4-nitro-phenylamino)-8H-pyrido[2,3-d]pyrimidin-7-one [Example 367] | – | 2300 | –
26 | O=c1ccc2cnc(Nc3ccc4c(c3)CCN4)nc2n1C1CCCC1 [Example 553, 8-Cyclopentyl-2-(2,3-dihydro-1H-indol-5-ylamino)-8H-pyrido[2,3-d]pyrimidin-7-one] | – | 99 | IC50 (cdc2/cyclinB): 2500 nM
27 | CC(=O)Nc1ccc(Nc2ncc3ccc(=O)n(C(C)C)c3n2)cc1C#N [Example 445, N-[2-Cyano-4-(8-isopropyl-7-oxo-7,8-dihydro-pyrido[2,3-d]pyrimidin-2-ylamino)-phenyl]-acetamide] | – | 2700 | –
28 | CCC(C)n1c(=O)ccc2cnc(Nc3ccc(C)c(NS(C)(=O)=O)c3)nc21 (stereo not drawn) [Example 480, N-[5-(8-sec-Butyl-7-oxo-7,8-dihydro-pyrido[2,3-d]pyrimidin-2-ylamino)-2-methyl-phenyl]-methanesulfonamide] | – | 2900 | –
29 | O=c1ccc2cnc(Nc3cccc(C(F)(F)F)c3)nc2n1CC(F)(F)F [Example 611, 8-(2,2,2-Trifluoro-ethyl)-2-(3-trifluoromethyl-phenylamino)-8H-pyrido[2,3-d]pyrimidin-7-one] | 3300 | – | –
30 | Cn1c(=O)ccc2cnc(Nc3ccc(O)c(Cl)c3)nc21 [Example 616, 2-(3-Chloro-4-hydroxy-phenylamino)-8-methyl-8H-pyrido[2,3-d]pyrimidin-7-one] | 2200 | – | IC50 (cdk2/cyclinE): 3800 nM
31 | CCCCn1c(=O)ccc2cnc(Nc3ccc(C)c(NS(C)(=O)=O)c3)nc21 [Example 405, N-[5-(8-Butyl-7-oxo-7,8-dihydro-pyrido[2,3-d]pyrimidin-2-ylamino)-2-methyl-phenyl]-methanesulfonamide] | – | 3100 | –
32 | CC(=O)Nc1cc(Nc2ncc3ccc(=O)n(CC(F)(F)F)c3n2)ccc1C#N [Example 604, N-{2-Cyano-5-[7-oxo-8-(2,2,2-trifluoro-ethyl)-7,8-dihydro-pyrido[2,3-d]pyrimidin-2-ylamino]-phenyl}-acetamide] | 2000 | 3200 | –
